System: wild-type U2-OS cells
Assay: Toxicity of HaloTag pH sensors, CELLTITER Glo Cell Viability Assay (Example 9)
Format: cell-based
Conditions: 0-10 uM, overnight
Experimental: U2-OS cells were plated at 10,000 cells/well into wells of 96-well plates and incubated overnight. The next day, 0-10 uM (serially diluted 1:2) PBI-4959, PBI-5004 or PBI-4479 was added to the cells and again incubated overnight. After incubation, the media containing the HaloTag® pH sensors was removed, and 100 ul of fresh media (McCoy's 5A+10% FBS) was added. Cell viability was determined using the CELLTITER Glo Cell Viability Assay according to the manufacturer's protocol (Promega Corporation). Luminescence was read on a GloMAX®-Multi luminometer.

SMILES: O=C(NCCOCCOCCOCCOCCOCCOCCCCCCCl)c1ccc(C(=O)[O-])c(-c2c3ccc(=[N+]4CCN(CCCCS(=O)(=O)O)CC4)cc-3oc3cc(N4CCN(CCCCS(=O)(=O)O)CC4)ccc23)c1 [PBI-4479]
- toxicity (cell viability): non-toxicity

From patent publication US9702824B2, “pH sensors” (PROMEGA CORPORATION, priority 2012, dated 2017)
